Data published in patent US20100069246A1, “Herbicide Combination Comprising Dimethoxytriazinyl-Substituted Difluoromethanesulfonylanilides” (BAYER CROPSCIENCE AG, priority 2008, published 2010).

Tests used:
Assay in all cases: Post-emergence action, greenhouse pot test, visual scoring
Type in all cases: in vivo
Zea mays (ZEAMX) = system: Zea mays (ZEAMX)
Experimental: (§1) Seeds or rhizome pieces of mono- and dicotyledonous harmful and useful plants were placed in peat pots (diameter 4 cm) filled with sandy loam and then covered with soil. The pots were kept in a greenhouse under optimum conditions. In addition, harmful plants encountered in paddy rice cultivation were cultivated in pots with a water level 2 cm above the soil surface.
(§2) About three weeks after the start of the cultivation, the test plants were treated at the 2- to 3-leaf stage. The herbicides, formulated as powder or liquid concentrates, were, either alone or in the combinations according to the invention, sprayed in various dosages on to the green parts of the plants using an application rate of 600 l of water/ha (converted). For further cultivation of the plants, the pots were then again kept under optimum conditions in a greenhouse.
(§3) The visual scoring of the herbicidal effects was carried out in intervals up to 21 days after the treatment. Scoring was carried out in percent in comparison to the untreated control plants. 0%=no herbicidal activity, 100%=complete herbicidal activity=complete kill.
(§4) The percentages from the treatments with the herbicides alone (=individual application) and with the combinations according to the invention (=mixtures) were employed to calculate interactions using the method of Colby. When the observed efficacies of the mixtures exceed the formal sum of the values of the tests with individual applications, they also exceed the expected value according to Colby, which is calculated using the formula below (cf. S. R. Colby; in Weeds 15 (1967) pp. 20 to 22):
(§5) Here: • A, B=activity of components A and B in percent at a dosage of a and b g of ai/ha (=gramm of active substance per hectare), respectively. • E=expected value in % at a dosage of a+b g of ai/ha.

Oryza sativa (ORYSA) = system: Oryza sativa (ORYSA)
Experimental: as §1, §2, §3, §4, §5

[1] = system: Pharbitis purpurea (PHBPU)
Experimental: as §1, §2, §3, §4, §5

[2] = system: Alopecurus myosuroides (ALOMY)
Experimental: as §1, §2, §3, §4, §5

[3] = system: Abuthilon theophrasti (ABUTH)
Experimental: as §1, §2, §3, §4, §5

[4] = system: Matricaria inodora (MATIN)
Experimental: as §1, §2, §3, §4, §5

[5] = system: Amaranthus retroflexus (AMARE)
Experimental: as §1, §2, §3, §4, §5

[6] = system: Echinochloa crus-galli (ECHCG); conditions: 21 DAT
Experimental: as §1, §2, §3, §4, §5

[7] = system: Triticum aestivum (TRZAS); conditions: 10 DAT
Experimental: as §1, §2, §3, §4, §5

Setaria viridis (SETVI) = system: Setaria viridis (SETVI)
Experimental: as §1, §2, §3, §4, §5

[8] = system: Fallopia (ex Polygonum) convolvulus (POLCO)
Experimental: as §1, §2, §3, §4, §5

Avena fatua (AVEFA) = system: Avena fatua (AVEFA)
Experimental: as §1, §2, §3, §4, §5

Veronica persica (VERPE) = system: Veronica persica (VERPE)
Experimental: as §1, §2, §3, §4, §5

[9] = system: Lolium multiflorum (LOLMU)
Experimental: as §1, §2, §3, §4, §5

Viola tricolor (VIOTR) = system: Viola tricolor (VIOTR)
Experimental: as §1, §2, §3, §4, §5

[10] = system: Cyperus esculentus (CYPES); conditions: 21 DAT
Experimental: as §1, §2, §3, §4, §5

[11] = 10 DAT, component A 4 g of ai/ha
[12] = 21 DAT, component A 12 g of ai/ha
[13] = 21 DAT, component A 4 g of ai/ha
[14] = 10 DAT, component B 300 g of ai/ha
[15] = 10 DAT, component B 900 g of ai/ha
[16] = 21 DAT, component B 300 g of ai/ha
[17] = 21 DAT, component B 900 g of ai/ha
[18] = 10 DAT, component B 400 g of ai/ha
[19] = 10 DAT, component B 1200 g of ai/ha
[20] = 21 DAT, component B 400 g of ai/ha
[21] = 21 DAT, component B 1200 g of ai/ha

With `COc1nc(OC)nc(C(=O)c2cccc(F)c2N(C)S(=O)(=O)C(F)F)n1` [A-1] the “% activity found” value (Zea mays (ZEAMX); [11]) was 0%, the “% activity found” value (Zea mays (ZEAMX); [12]) was 0% and the “% activity found” value (Oryza sativa (ORYSA); [12]) was 10%. For the same compound, the “% activity found” value ([1]; 10 DAT, component A 12 g of ai/ha) was 60%, the “% activity found” value [1, 13] was 60% and the “% activity found” value [2, 11] was 40%. The “% activity found” value [2, 13] was 40%, the “% activity found” value [3, 13] was 85% and the “% activity found” value [3, 12] was 85%. The “% activity found” value [4, 12] was 60%, the “% activity found” value [5, 13] was 70% and the “% activity found” value ([6]; component A 4 g of ai/ha) was 85%. The “% activity found” value ([7]; component A 4 g of ai/ha) was 0%, the “% activity found” value (Setaria viridis (SETVI); [11]) was 50% and the “% activity found” value [8, 12] was 70%.
With `CC(C)(NC(=O)NCc1ccccc1Cl)c1ccccc1` [B1-1, N-[(2-chlorophenyl)methyl]-N′-(1-methyl-1-phenylethyl)urea] the “% activity found” value (Zea mays (ZEAMX); [14]) was 0%, the “% activity found” value (Zea mays (ZEAMX); [15]) was 0% and the “% activity found” value (Zea mays (ZEAMX); [16]) was 5%. For the same compound, the “% activity found” value (Zea mays (ZEAMX); [17]) was 0%, the “% activity found” value (Avena fatua (AVEFA); [14]) was 0% and the “% activity found” value (Avena fatua (AVEFA); [15]) was 0%. For the same compound, the “% activity found” value (Oryza sativa (ORYSA); [14]) was 0%, the “% activity found” value [1, 14] was 0% and the “% activity found” value [1, 15] was 0%. For the same compound, the “% activity found” value [1, 16] was 0%, the “% activity found” value [1, 17] was 30% and the “% activity found” value [2, 14] was 0%. For the same compound, the “% activity found” value [2, 15] was 0%, the “% activity found” value [2, 16] was 0% and the “% activity found” value [2, 17] was 0%. For the same compound, the “% activity found” value [3, 14] was 0%, the “% activity found” value [3, 16] was 0% and the “% activity found” value [3, 17] was 0%. For the same compound, the “% activity found” value [4, 14] was 20%, the “% activity found” value [4, 16] was 0% and the “% activity found” value [4, 17] was 0%. For the same compound, the “% activity found” value [5, 16] was 0%, the “% activity found” value [5, 17] was 20% and the “% activity found” value (Veronica persica (VERPE); [14]) was 0%. The “% activity found” value (Veronica persica (VERPE); [15]) was 0%, the “% activity found” value (Veronica persica (VERPE); [16]) was 0% and the “% activity found” value (Veronica persica (VERPE); [17]) was 0%. For the same compound, the “% activity found” value [9, 17] was 0%, the “% activity found” value (Viola tricolor (VIOTR); [17]) was 10% and the “% activity found” value ([6]; component B 300 g of ai/ha) was 0%. For the same compound, the “% activity found” value ([7]; component B 900 g of ai/ha) was 5%, the “% activity found” value (Setaria viridis (SETVI); [14]) was 0% and the “% activity found” value (Setaria viridis (SETVI); [15]) was 0%. For the same compound, the “% activity found” value (Setaria viridis (SETVI); [16]) was 0%, the “% activity found” value (Setaria viridis (SETVI); [17]) was 0% and the “% activity found” value [8, 16] was 0%. The “% activity found” value [8, 17] was 0%.
With `Cc1ccc(NC(=O)NC(C)(C)c2ccccc2)cc1` [B2-4, N-(4-methylphenyl)-N′-(1-methyl-1-phenylethyl)urea] the “% activity found” value (Zea mays (ZEAMX); [18]) was 0%, the “% activity found” value (Zea mays (ZEAMX); [19]) was 10% and the “% activity found” value (Avena fatua (AVEFA); [20]) was 0%. The “% activity found” value (Avena fatua (AVEFA); [21]) was 0%, the “% activity found” value ([10]; component B 400 g of ai/ha) was 0% and the “% activity found” value ([10]; component B 1200 g of ai/ha) was 0%. For the same compound, the “% activity found” value (Oryza sativa (ORYSA); [21]) was 10%, the “% activity found” value [1, 18] was 0% and the “% activity found” value [1, 19] was 0%. For the same compound, the “% activity found” value [1, 20] was 0%, the “% activity found” value [1, 21] was 0% and the “% activity found” value [2, 18] was 0%. The “% activity found” value [2, 20] was 0%, the “% activity found” value [2, 21] was 0% and the “% activity found” value [3, 18] was 0%. For the same compound, the “% activity found” value [3, 19] was 0%, the “% activity found” value [3, 20] was 0% and the “% activity found” value [3, 21] was 0%. The “% activity found” value [4, 18] was 0%, the “% activity found” value [4, 19] was 0% and the “% activity found” value [4, 20] was 0%. The “% activity found” value [4, 21] was 20%, the “% activity found” value [5, 19] was 0% and the “% activity found” value [5, 20] was 0%. The “% activity found” value [5, 21] was 0%, the “% activity found” value (Veronica persica (VERPE); [20]) was 0% and the “% activity found” value (Veronica persica (VERPE); [21]) was 0%. The “% activity found” value [9, 18] was 0%, the “% activity found” value [9, 19] was 0% and the “% activity found” value [9, 20] was 0%. For the same compound, the “% activity found” value [9, 21] was 0%, the “% activity found” value (Viola tricolor (VIOTR); [18]) was 0% and the “% activity found” value (Viola tricolor (VIOTR); [19]) was 0%. The “% activity found” value (Viola tricolor (VIOTR); [20]) was 0%, the “% activity found” value (Viola tricolor (VIOTR); [21]) was 0% and the “% activity found” value ([7]; component B 400 g of ai/ha) was 0%. For the same compound, the “% activity found” value ([7]; component B 1200 g of ai/ha) was 0%, the “% activity found” value (Setaria viridis (SETVI); [21]) was 40% and the “% activity found” value [8, 18] was 0%. For the same compound, the “% activity found” value [8, 19] was 0%, the “% activity found” value [8, 20] was 0% and the “% activity found” value [8, 21] was 0%.
